Among the data in US20230295140A1, “INHIBITORS OF VAP-1” (Acucela Inc., priority 2021, published 2023) are IC50 values, retold here.

What all share (format): biochemical
Conditions in all cases: class symbols, ranges defined in μM

The target of test [1] is rhVAP-1 (Homo sapiens (Human), UniProt Q16853). Kind of test: VAP-1 fluorometric assay (Amplex Red/HRP, benzylamine substrate). Here is the method:
The capability of compounds described herein to inhibit the enzymatic activity of vascular adhesion protein-1 (VAP-1) was determined by fluorometric assay. The assay procedure provided by R&D Systems was modified slightly for use as an inhibitor screening assay. The assay measured the H2O2 generated from the oxidative deamination of benzylamine by rhVAP-1 by converting Amplex® Red to the fluorescent product, resorufin, via horseradish peroxidase (HRP) and H2O2. Reaction buffer was 10 mM NaHCO3, pH 7.4. A standard curve was prepared by serially diluting H2O2 in reaction buffer. A 10 μM solution of resorufin was prepared in reaction buffer and was dispensed to 2 wells. These wells served as positive control for maximum fluorescence. Reaction buffer was added to the individual wells so that the final volume in each well was 100 μL. Amplex Red was diluted to 1 mM in reaction buffer. A 10 U stock of HRP was prepared in reaction buffer. A reaction cocktail was prepared by mixing equal parts 1 mM Amplex Red with 10 U HRP with 3 parts reaction buffers. The reaction cocktail was added to the appropriate wells, so that that final concentration in the well was 0.05 mM Amplex Red and 0.5 U HRP. A 200 μM solution of benzylamine was prepared in reaction buffer. Benzylamine was added to the appropriate wells so that the final concentration was 50 μM. Inhibitors were diluted in DMSO to 20× and distributed to the appropriate wells. LJP-1207 served a positive control. rhVAP-1 was purchased from R&D Systems. The concentration used for each lot was determined so that the activity was equal to the first lot. Two wells were left blank as controls. The plate was incubated for 30 minutes at 37° C., protected from light under foil. The plate was read at 530/35 emission and 590/35 excitation. Data processing was performed using Excel and Prism software.
The capability of compounds described herein to inhibit the enzymatic activity of vascular adhesion protein-1 (VAP-1) was determined by fluorometric assay. The assay procedure provided by R&D Systems was modified slightly for use as an inhibitor screening assay. The assay measured the H2O2 generated from the oxidative deamination of benzylamine by rhVAP-1 by converting Amplex® Red to the fluorescent product, resorufin, via horseradish peroxidase (HRP) and H2O2. Amplex Red, HRP, Benzylamine, inhibitors (with DMSO as vehicle, 0.5% v/v) and rhVAP-1 were added to the wells. Assay was conducted in 10 mM NaHCO3, pH 7.4. A standard curve was prepared by serially diluting H2O2 in reaction buffer. The plate was incubated for 30 minutes at 37° C., protected from light under foil. The plate was read at 530/35 emission and 590/35 excitation. Data processing was performed using Prism software.

Test [2] concerns the target rhMAO-B (Homo sapiens (Human), UniProt P27338). In words: MAO-Glo assay, MAO-B inhibition. The protocol: (§1) The capability of compounds described herein to inhibit MAO was determined using a modified Promega MAO-Glo™ assay kit. The substrate ((4S)-4,5-dihydro-2-(6-hydroxybenzothiazolyl)-4-thiazolecarboxylic acid) was converted by MAO to produce methyl ester luciferin. The luciferin was then converted by luciferase to produce oxyluciferin and light. The light was measured using a luminescence setting on the plate reader. A standard curve was prepared by serially diluting luciferin in reaction buffer. The standard kit reaction buffer was used—100 mM HEPES (pH 7.5), 5% glycerol. The substrate was dispensed into the wells so that the final concentration for MAO-A inhibition assay would be 10 μM and MAO-B inhibition assay would be […]. Inhibitors were diluted in DMSO to 4× and distributed to the appropriate wells. Clorgyline and Deprenyl served as positive controls. rhMAO-A and rhMAO-B were purchased from Sigma. MAO-A or MAO-B was added to the appropriate wells. The plate was incubated for 1 hour, at room temperature with gentle shaking (90 rpm). The detection agent was added at equal volume (48 μL detection agent to 48 μL reaction). The plate was incubated for 20 minutes, at room temperature with gentle shaking (90 rpm). The plate luminescence was read. Data processing was performed using Prism software.
(§2) The capability of compounds described herein to inhibit MAO was determined using a modified Promega MAO-Glo™ assay. Test compounds, substrate and enzyme were incubated per manufacturer instructions for 1 hour, at room temperature with gentle shaking (90 rpm) before addition of detection agent. The detection agent was added at equal volume (48 μL detection agent to 48 μL reaction). The plate was incubated for 20 minutes, at room temperature with gentle shaking (90 rpm). The plate luminescence was read. Data processing was performed using Prism software.

For test [3], the target named is rhMAO-A (Homo sapiens (Human), UniProt P21397). In words: MAO-Glo assay, MAO-A inhibition. The protocol: as §1, §2

Where a name gives a salt, the structure may show the parent alone.

rhVAP-1, sequence (Q16853 whole entry): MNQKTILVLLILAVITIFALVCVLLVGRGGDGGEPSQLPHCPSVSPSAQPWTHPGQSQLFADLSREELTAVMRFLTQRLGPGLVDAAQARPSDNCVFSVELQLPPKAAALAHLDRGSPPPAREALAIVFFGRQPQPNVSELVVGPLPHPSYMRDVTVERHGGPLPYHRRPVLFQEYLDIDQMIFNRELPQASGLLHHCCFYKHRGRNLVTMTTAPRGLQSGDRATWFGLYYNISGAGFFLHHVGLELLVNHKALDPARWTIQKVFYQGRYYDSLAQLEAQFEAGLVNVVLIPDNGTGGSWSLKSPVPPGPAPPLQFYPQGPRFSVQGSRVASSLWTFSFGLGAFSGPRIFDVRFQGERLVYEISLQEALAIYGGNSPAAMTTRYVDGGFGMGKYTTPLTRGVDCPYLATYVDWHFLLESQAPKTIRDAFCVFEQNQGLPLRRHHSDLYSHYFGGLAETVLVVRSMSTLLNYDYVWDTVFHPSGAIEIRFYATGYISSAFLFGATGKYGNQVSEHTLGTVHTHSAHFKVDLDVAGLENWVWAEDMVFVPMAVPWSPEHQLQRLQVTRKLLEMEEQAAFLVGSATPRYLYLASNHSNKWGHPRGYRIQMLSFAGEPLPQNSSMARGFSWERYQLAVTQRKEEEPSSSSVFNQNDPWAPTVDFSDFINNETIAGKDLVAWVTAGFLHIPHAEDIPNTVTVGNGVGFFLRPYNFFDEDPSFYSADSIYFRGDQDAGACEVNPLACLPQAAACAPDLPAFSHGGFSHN
rhMAO-A, sequence (P21397 whole entry): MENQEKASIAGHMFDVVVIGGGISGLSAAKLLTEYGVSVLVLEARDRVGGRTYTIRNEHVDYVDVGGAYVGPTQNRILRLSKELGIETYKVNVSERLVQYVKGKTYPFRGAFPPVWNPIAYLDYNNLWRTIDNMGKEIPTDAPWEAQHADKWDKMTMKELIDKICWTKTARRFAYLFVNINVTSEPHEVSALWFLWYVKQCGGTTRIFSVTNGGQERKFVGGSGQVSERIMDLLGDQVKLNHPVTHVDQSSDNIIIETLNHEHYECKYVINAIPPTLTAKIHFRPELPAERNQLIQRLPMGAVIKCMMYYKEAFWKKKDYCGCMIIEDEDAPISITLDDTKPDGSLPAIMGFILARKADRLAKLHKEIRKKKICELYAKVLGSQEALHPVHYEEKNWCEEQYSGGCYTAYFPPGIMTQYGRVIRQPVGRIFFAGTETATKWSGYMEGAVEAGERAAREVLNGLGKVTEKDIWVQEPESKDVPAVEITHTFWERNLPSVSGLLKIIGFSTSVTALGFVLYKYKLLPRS
rhMAO-B, sequence (P27338 whole entry): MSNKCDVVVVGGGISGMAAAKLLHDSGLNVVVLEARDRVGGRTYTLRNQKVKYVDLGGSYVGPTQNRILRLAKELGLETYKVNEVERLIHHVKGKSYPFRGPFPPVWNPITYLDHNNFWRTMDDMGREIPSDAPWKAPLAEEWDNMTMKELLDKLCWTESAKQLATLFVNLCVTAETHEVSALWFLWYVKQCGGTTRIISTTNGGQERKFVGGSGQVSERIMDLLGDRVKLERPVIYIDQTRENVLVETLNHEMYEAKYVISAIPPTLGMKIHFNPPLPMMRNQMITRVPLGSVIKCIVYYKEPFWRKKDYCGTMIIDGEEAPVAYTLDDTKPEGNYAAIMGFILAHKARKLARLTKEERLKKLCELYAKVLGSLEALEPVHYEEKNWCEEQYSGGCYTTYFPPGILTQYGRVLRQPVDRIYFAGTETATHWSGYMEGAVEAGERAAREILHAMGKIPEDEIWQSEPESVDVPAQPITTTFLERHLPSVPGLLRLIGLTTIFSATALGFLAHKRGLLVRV

As for `CCCCc1nc2ccc(OC/C(=C/F)CN)cc2o1` [Example 1, (E)-2-(((2-butylbenzo[d]oxazol-6-yl)oxy)methyl)-3-fluoroprop-2-en-1-amine 4-methylbenzenesulfonate], the IC50 in test [1], in test [2] and in test [3] was under 0.1 µM in each case.
`CCCCc1nc2ccc(OC/C(=C/F)CN)c(F)c2o1` [Example 2, (E)-2-(((2-butyl-7-fluorobenzo[d]oxazol-6-yl)oxy)methyl)-3-fluoroprop-2-en-1-amine]: the IC50 (as a rule, the point on the concentration scale where inhibition reaches its midpoint) was under 0.1 µM in test [1], under 0.1 µM in test [2] and 10 to 30 µM in test [3].
`CCCCc1nc2ccc(OC/C(=C/F)CN)cc2s1` [Example 3, (E)-2-(((2-butylbenzo[d]thiazol-6-yl)oxy)methyl)-3-fluoroprop-2-en-1-amine]: the IC50 in test [1] was under 0.1 µM; in test [2], under 0.1 µM; in test [3] it was 1 to 10 µM.
Regarding `CCCNc1nc2ccc(OC/C(=C/F)CN)cc2s1` [Example 4, (E)-6-((2-(aminomethyl)-3-fluoroallyl)oxy)-N-propylbenzo[d]thiazol-2-amine], the results for the IC50 in test [1], in test [2] and in test [3] were under 0.1 µM, 0.1 to 1 µM and 10 to 30 µM, respectively.
Taken in the same sequence, the figures for `CCCNc1nc2ccc(OC/C(=C/F)CN)cc2o1` [Example 5, (E)-6-((2-(aminomethyl)-3-fluoroallyl)oxy)-N-propylbenzo[d]oxazol-2-amine] were under 0.1 µM, 0.1 to 1 µM and 10 to 30 µM.
On to `CCCNc1nc2ccc(OC/C(=C/F)CN)c(F)c2o1` [Example 6, (E)-6-((2-(aminomethyl)-3-fluoroallyl)oxy)-7-fluoro-N-propylbenzo[d]oxazol-2-amine], for which the results for the IC50 in test [1], in test [2] and in test [3] were under 0.1 µM, 0.1 to 1 µM and 10 to 30 µM, respectively.
Regarding `CCCCc1nc2ccc(OC/C(=C/F)CN)c(Br)c2s1` [Example 7, (E)-2-(((7-bromo-2-butylbenzo[d]thiazol-6-yl)oxy)methyl)-3-fluoroprop-2-en-1-amine], the IC50 in test [1], in test [2] and in test [3] was under 0.1 µM each time.
For the molecule `CCCCc1nc2cc(OC/C(=C/F)CN)ccc2o1` [Example 8, (E)-2-(((2-butylbenzo[d]oxazol-5-yl)oxy)methyl)-3-fluoroprop-2-en-1-amine 4-methylbenzenesulfonate], the IC50 in test [1] was under 0.1 µM; in test [2] it was under 0.1 µM; in test [3], 1 to 10 µM.
Take `CCCCn1oc2cc(OC/C(=C/F)CN)ccc2c1=O` [Example 9, (E)-6-((2-(aminomethyl)-3-fluoroallyl)oxy)-2-butylbenzo[d]isoxazol-3(2H)-one 4-methylbenzenesulfonate]: the IC50 in test [1] is under 0.1 µM; in test [2], 1 to 10 µM; in test [3], 10 to 30 µM.
As for `CCCCc1nc2ccc(OC/C(=C\F)CN)c(F)c2s1` [Example 15, (Z)-2-(((2-butyl-7-fluorobenzo[d]thiazol-6-yl)oxy)methyl)-3-fluoroprop-2-en-1-amine 4-methylbenzenesulfonate], the IC50 in test [1] and in test [2] was under 0.1 µM throughout.
`CCCCc1nc2ccc(OC/C(F)=C\CN)cc2o1` [Example 16, (E)-4-((2-butylbenzo[d]oxazol-6-yl)oxy)-3-fluorobut-2-en-1-amine] showed an IC50 in test [1] of 0.1 to 1 µM.
Molecule `C=C(CN)C(F)(F)Oc1ccc2nc(CCCC)oc2c1` [Example 29, 2-(((2-butylbenzo[d]oxazol-6-yl)oxy)difluoromethyl)prop-2-en-1-amine hydrochloride] displayed an IC50 in test [1] of 0.1 to 1 µM.
Same read-out and setting: next, `CCCCc1nc2ccc(CCC(=CF)CN)cc2o1` [Example 52, 4-(2-butylbenzo[d]oxazol-6-yl)-2-(fluoromethylene)butan-1-amine 4-methylbenzenesulfonate]: under 0.1 µM; `CCCCc1nc2ccc(/C=C(/F)CN)cc2o1` [Example 95, (E)-3-(2-butylbenzo[d]oxazol-6-yl)-2-fluoroprop-2-en-1-amine]: 0.1 to 1 µM.
